Data taken from US4288449A, “N-Arylsulfonylpyrroles, their preparation, and therapeutic agents containing these compounds” (BASF Aktiengesellschaft, priority 1978, dated 1981).

Key:
[1] = Diuretic action after oral administration (excretion of electrolyte and of water); format: in vivo, dog (male beagles); conditions: for Excretion of electrolyte: Na^+ / Na^+/K^+ quotient / Excretion of water: H2 O / Excretion of electrolyte: K^+ / Excretion of electrolyte: Cl^- / times more active than Furosemid / Na^+ excretion between the 2nd and 6th hours after administration: dog, oral; for Excretion of electrolyte: Na^+: dose mg/kg: 9 0.464, 15 0.215, 114 0.1, 116 0.1, 120 0.215, Furosemid 1.0; for Na^+/K^+ quotient: control 1.0; for times more active than Furosemid: by doses giving Na^+ and H2 O excretion similar to Furosemid; for Na^+ excretion between the 2nd and 6th hours after administration / diuretic action: in words
Protocol: The diuretic action was determined on male beagles weighing from 10 to 15 kg.
The animals are kept without food for 18 hours before starting the experiment. 2 hours before administration of the test substance, they are given 20 ml/kg of water orally. The test substances are administered orally as a tragacanth suspension. Thereafter, 4 ml/kg of water are administered 6 times at intervals of 1 hour.
Urine samples are taken by catheterization at intervals of 2 hours, over a period of 6 hours. […]

in vivo = conditions: mouse, po
Protocol: To determine the acute toxicity, the substances are administered orally to groups of 10 female mice of the NMRI strain, weighing from 20 to 23 g. The mean lethal dose (LD 50) is determined after a period of observation of 72 hours.

[2] = 2 hours, doses as E1, control 9,3
[3] = 2 hours, doses as E1, control 67
[4] = 2 hours, doses as E1, control 81
[5] = 6 hours, doses as E6, control 27
[6] = 6 hours, doses as E6, control 184
[7] = 6 hours, doses as E6, control 238

Compound	Excretion of electrolyte: Na^+ ([1]; 2 hours, control 66)	Na^+/K^+ quotient ([1]; 2 hours, doses as E1)	Excretion of water: H2 O [1, 2] [mL/kg]	Excretion of electrolyte: K^+ [1, 3] [μval/kg]	Excretion of electrolyte: Cl^- [1, 4]	Excretion of electrolyte: Na^+ ([1]; 6 hours, control 212)	Excretion of water: H2 O [1, 5] [mL/kg]	Excretion of electrolyte: K^+ [1, 6] [μval/kg]	Excretion of electrolyte: Cl^- [1, 7]	times more active than Furosemid [1] [times]	LD50 at 72 h (in vivo) [mg/kg]	selectivity ratio (in vivo)	Na^+ excretion between the 2nd and 6th hours after administration [1]	diuretic action [1]
CCc1ccc(CC)n1S(=O)(=O)c1cc(C(=O)O)cc(NCc2ccsc2)c1Oc1ccccc1 [Example 114]	1410 µval/kg	4.8	26	295	1,780 μval/kg	1,640 μval/kg	42	442	2,080 μval/kg	10	> 2150	> 21500	–	–
O=C(O)c1cc(NCc2ccccc2)c(Oc2ccccc2)c(S(=O)(=O)n2cccc2)c1 [Example 9]	1,520 μval/kg	5.1	27	298	1,940 μval/kg	2930 µval/kg	56	810	4,200 μval/kg	2.2	957	2060	a distinct further increase in excretion	not only better action, but also longer-lasting action, than Furosemid
Cc1ccc(C)n1S(=O)(=O)c1cc(C(=O)O)cc(NCc2ccsc2)c1Nc1ccccc1 [Example 120]	1260 µval/kg	5.6	19	227	1,600 μval/kg	2,050 μval/kg	41	527	2,760 μval/kg	–	> 2150	> 10000	–	–
O=C(O)c1cc(NCc2ccsc2)c(Oc2ccccc2)c(S(=O)(=O)n2cccc2)c1 [Example 15]	1,240 μval/kg	3.7	23	333	1,520 μval/kg	1,940 μval/kg	45	642	2,440 μval/kg	–	1470	6840	a distinct further increase in excretion	not only better action, but also longer-lasting action, than Furosemid
CCc1ccc(C)n1S(=O)(=O)c1cc(C(=O)O)cc(NCc2ccsc2)c1Oc1ccccc1 [Example 116]	1,150 μval/kg	4.2	22	271	1,510 μval/kg	1,560 μval/kg	40	473	2,100 μval/kg	10	> 2150	> 21500	–	–
NS(=O)(=O)c1cc(C(=O)O)c(NCc2ccco2)cc1Cl [Furosemid, 4-chloro-N-(2-furylmethyl)-5-sulfamylanthranilic acid, reference compound]	–	3.1	–	–	–	–	–	–	–	–	–	–	–	–
